Target: T1, PAR-2 (Homo sapiens, UniProt P55085)
T1 construct: human embryonic kidney 293 cells (HEK293) endogenously expressing PAR-2; endogenous in cells; host or cells: HEK293
T1 sequence (P55085 26-397): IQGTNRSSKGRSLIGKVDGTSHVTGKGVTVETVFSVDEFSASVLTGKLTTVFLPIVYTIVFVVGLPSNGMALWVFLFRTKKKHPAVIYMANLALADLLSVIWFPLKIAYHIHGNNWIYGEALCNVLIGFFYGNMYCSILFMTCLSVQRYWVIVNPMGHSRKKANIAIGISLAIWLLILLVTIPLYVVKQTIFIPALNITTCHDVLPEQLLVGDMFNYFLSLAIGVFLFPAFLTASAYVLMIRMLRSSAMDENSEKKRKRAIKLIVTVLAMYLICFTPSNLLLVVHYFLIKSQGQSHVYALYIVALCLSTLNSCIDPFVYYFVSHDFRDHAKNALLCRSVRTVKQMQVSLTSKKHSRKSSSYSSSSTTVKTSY
Test: In vitro PAR-2 assay (trypsin-evoked calcium signal, Fluo-4)
Type: cell-based
Details: for IC50: HEK293 cells endogenously expressing PAR-2, in the presence of 4 nM trypsin, calcium imaging
Protocol: Assay Principle: A cellular in vitro assay was developed with human embryonic kidney 293 cells (HEK293) endogenously expressing PAR-2. The PAR-2 activating protease trypsin (EC50: ˜1 nM) was used as an agonistic stimulus with subsequent Fluo-4 dependent intracellular calcium detection (calcium imaging).
A cell-based calcium assay was applied for the identification of PAR-2 antagonistic effects of polyethylene glycol esters and polyethylene glycol ethers. Functional modulation of PAR-2 by the tested compounds was measured and quantified using the calcium sensitive fluorescent probe Fluo-4 AM on a fluorescence microplate reader. Activation of PAR-2 by an agonist (trypsin) led to an increase in the intracellular calcium concentration and thus an increase in fluorescence intensity.
Human embryonic kidney 293 cells (HEK293) endogenously expressing PAR-2 were cultured in DMEM (high glucose) supplemented with tetracycline-free FCS (10% v/v), L-glutamine (4 mM), blasticidin (15 μg/ml), zeocin (100 μg/ml) and puromycin (2 μg/ml) in a water-saturated atmosphere at 37° C. and 5% CO2.
Cells were seeded onto 96-well clear-bottom black-walled assay plates at a density of 45.000 cells per well in 100 μl of cell culture medium. Intracellular calcium increase in the living cells due to receptor activation was monitored 24 h later using the calcium sensitive fluorescent probe Fluo-4 AM on a fluorescence microplate reader (FlexStation® system, Molecular Devices). […]
Medium was replaced with 150 μl KH buffer supplemented with sulfinpyrazone (250 μM). Subsequently, 50 μl KH buffer supplemented with the screening compounds or control substances were added and the cells were incubated for 10 min. under assay conditions in the microplate reader. Changes in fluorescence were recorded at 37° C. after addition of 50 μl KH buffer supplemented with the PAR-2 agonist trypsin (final concentration of 4 nM under measurement conditions).
Calcium mobilization was quantified as the change of peak fluorescence (ΔF) over the baseline level (F). The data was analysed with the software of the microplate reader. […]

IC50 | EC50 (HEK293 cells, Fluo-4 calcium detection, read-out: EC50 of PAR-2 activating protease (agonistic stimulus)) | Substance
100 µM | – | PEG-5 Isononanoate
65 µM | – | PEG-9 Tridecylether
– | ~0.001 µM | trypsin [reference compound]

From patent US20180185301A1, “PHARMACEUTICAL COMPOSITIONS COMPRISING POLYALKYLENE GLYCOL DERIVATIVES” (Symrise AG, priority 2015, published 2018)
